Laboratory results published in US20210346359A1, “Use of CFTR Modulators For Treating Cerebrovascular Conditions” (Qanatpharma AG, priority 2018, published 2021).
Entries after “also recorded” stand apart in the source; their conditions may differ.

Assays:
wild-type CFTR = wild-type CFTR (Homo sapiens, UniProt P13569); conditions: demonstrated earlier (15); cited from earlier work
[1] = Global hemodynamic parameters (CO, TPR, MAP) in heart failure mice; assay type: in vivo, mouse; conditions: HF mice, 3 mg/kg daily for 2 days
Protocol: As previously described (9-11), echocardiographic measurements were collected with a 30 MHz mechanical sector transducer (Vevo 770; Visual Sonics, Toronto, Canada) in conjunction with the mean arterial pressure (MAP) measurements (Millar SPR-671 micro-tip mouse pressure catheter; Inter V Medical Inc., Montreal, Canada). The aortic flow velocity-time integral (VTI) was measured using pulse wave Doppler just above the aortic root. The aortic cross-sectional area (CSA) was calculated from the aortic root dimension (ARD): CSA=π(ARD/2)2. Stroke volume (SV), CO and TPR were calculated as: SV=CSA×VTI; CO=SV×HR; TPR=MAP/CO.
Myocardial infarction: HF was induced by surgical ligation of the left anterior descending coronary artery (3). Briefly, mice were anaesthetized with isoflurane, intubated with a 20-gauge angiocatheter and ventilated with room air. Under sterile conditions, the thorax and pericardium were opened, and the left anterior descending coronary artery was permanently ligated with 7-0 silk suture (Deknatel: Fall River, USA). In sham-operated controls, the thorax and pericardium were opened, but the left anterior descending coronary artery was not ligated. Following the procedure, the chest was closed and the mice were extubated upon spontaneous respiration. Posterior cerebral arteries (PCAs) were isolated 4-6 weeks post-infarction.

wild-type CFTR, sequence (P13569 whole entry, species assumed): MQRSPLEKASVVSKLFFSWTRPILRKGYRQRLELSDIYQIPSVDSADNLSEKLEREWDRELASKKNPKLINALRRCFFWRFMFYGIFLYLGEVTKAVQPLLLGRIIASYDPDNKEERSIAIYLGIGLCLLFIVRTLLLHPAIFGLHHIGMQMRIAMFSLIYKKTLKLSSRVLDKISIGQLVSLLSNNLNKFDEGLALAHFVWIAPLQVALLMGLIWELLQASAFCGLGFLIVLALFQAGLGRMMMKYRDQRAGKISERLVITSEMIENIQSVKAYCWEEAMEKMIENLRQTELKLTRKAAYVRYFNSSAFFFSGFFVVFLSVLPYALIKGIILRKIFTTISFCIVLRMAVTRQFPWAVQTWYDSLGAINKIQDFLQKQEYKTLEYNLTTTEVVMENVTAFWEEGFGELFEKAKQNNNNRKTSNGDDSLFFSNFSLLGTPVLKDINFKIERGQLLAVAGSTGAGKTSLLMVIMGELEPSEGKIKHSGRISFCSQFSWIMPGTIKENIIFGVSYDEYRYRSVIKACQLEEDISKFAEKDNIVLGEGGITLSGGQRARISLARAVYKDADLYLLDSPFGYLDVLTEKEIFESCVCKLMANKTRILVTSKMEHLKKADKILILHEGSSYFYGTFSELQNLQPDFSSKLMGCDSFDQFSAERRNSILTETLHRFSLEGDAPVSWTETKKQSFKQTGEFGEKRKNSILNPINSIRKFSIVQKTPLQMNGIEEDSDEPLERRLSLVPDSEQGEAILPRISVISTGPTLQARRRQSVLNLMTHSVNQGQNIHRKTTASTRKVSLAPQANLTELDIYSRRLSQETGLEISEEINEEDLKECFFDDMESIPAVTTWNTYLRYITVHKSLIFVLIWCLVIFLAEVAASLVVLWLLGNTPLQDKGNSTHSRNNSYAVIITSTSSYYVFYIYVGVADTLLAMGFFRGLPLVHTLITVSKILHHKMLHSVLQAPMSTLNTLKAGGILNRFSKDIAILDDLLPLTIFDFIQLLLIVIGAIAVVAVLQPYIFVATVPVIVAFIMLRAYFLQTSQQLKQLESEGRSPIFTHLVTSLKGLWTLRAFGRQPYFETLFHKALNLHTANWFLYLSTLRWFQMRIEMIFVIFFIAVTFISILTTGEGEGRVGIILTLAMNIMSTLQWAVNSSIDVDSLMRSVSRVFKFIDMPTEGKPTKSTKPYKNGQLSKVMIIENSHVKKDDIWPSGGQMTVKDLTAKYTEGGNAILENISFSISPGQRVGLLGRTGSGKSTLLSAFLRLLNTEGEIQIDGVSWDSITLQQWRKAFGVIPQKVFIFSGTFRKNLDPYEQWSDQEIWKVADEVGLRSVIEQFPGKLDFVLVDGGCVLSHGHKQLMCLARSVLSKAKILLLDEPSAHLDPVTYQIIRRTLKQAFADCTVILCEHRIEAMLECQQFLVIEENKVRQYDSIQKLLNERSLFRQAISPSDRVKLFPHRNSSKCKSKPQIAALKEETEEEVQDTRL

## O=C(Nc1ncc(C(c2ccccc2Cl)N2CCC(O)C2)s1)C1(c2ccc3c(c2)OCO3)CC1 (stereo not shown) [C18, 1-(benzo[d][1,3]dioxol-5-yl)-N-(5-((2-chlorophenyl)(3-hydroxypyrrolidin-1-yl)methyl)thiazol-2-yl)cyclopropanecarboxamide]
wild-type CFTR
  interaction with wild-type CFTR / CFTR expression at the plasma membrane: directly interacts with and stabilizes wild-type CFTR
[1]
  cardiac injury induced by left anterior descending coronary artery ligation: does not ameliorate
  mean arterial pressure (MAP): no effect
[1]; 3 mg/kg
  total peripheral resistance (TPR): no effect; also recorded: lack of effect
